From paper PMC9953468, “In Silico, In Vitro, and Ex Vivo Biological Activity of Some Novel Mebeverine Precursors” (Biomedicines, 2023)
“Also recorded” adds a separate entry of the source. Like-named read-outs stand apart in the source and are kept apart here.

What was measured:
[1] = system: Eighteen tested microorganisms (Gram-positive bacteria, Gram-negative bacteria, yeasts, fungi); experiment: Antimicrobial activity, agar well diffusion method, whole panel; format: cell-based; conditions: whole panel of tested microorganisms, in words
Description: Eighteen tested microorganisms including five Gram-positive bacteria (Bacillus subtilis ATCC 6633, Bacillus amyloliquefaciens 4BCL-YT, Staphylococcus aureus ATCC 25923, Listeria monocytogenes NBIMCC 8632, Enterococcus faecalis ATCC 19433), five Gram-negative bacteria (Salmonella enteritidis ATCC 13076, Klebsiella sp.—clinical isolate, Escherichia coli ATCC 25922, Proteus vulgaris ATCC 6380, Pseudomonas aeruginosa ATCC 9027), two yeasts (Candida albicans NBIMCC 74, Saccharomyces cerevisiae ATCC 9763) and six fungi (Aspergillus niger ATCC 1015, Aspergillus flavus, Penicillium sp., Rhizopus sp., Mucor sp.—plant isolates, Fusarium moniliforme ATCC 38932) from the collection of the Department of Microbiology at the University of Food Technologies—Plovdiv, Bulgaria, were selected for the antimicrobial activity test.
The antimicrobial activity of the samples was determined by the agar well diffusion method. The tested bacteria B. subtilis and B. amyloliquefaciens were cultured on LBG agar at 30 °C. The test bacteria S. aureus, L. monocytogenes, E. faecalis, S. enteritidis, Klebsiella sp., E. coli, P. vulgaris and P. aeruginosa were cultured on LBG agar at 37 °C for 24 h. The yeast C. albicans was cultured on MEA at 37 °C, while S. cerevisiae was cultured on MEA at 30 °C for 24 h. The fungi A. niger, A. flavus, Penicillium sp., Rhizopus sp., Mucor sp., and F. moniliforme were grown on MEA at 30 °C for 7 days or until sporulation.
The inocula of the tested bacteria/yeasts were prepared by homogenization of a small amount of biomass in 5 mL of sterile 0.5% NaCl. […] The number of viable cells and fungal spores was determined using a bacterial counting chamber Thoma (Poly-Optik, GmbH, Bad Blankenburg, Germany). […] Next, the inoculated media were transferred in a quantity of 18 mL in sterile Petri plates (d = 90 mm) (Gosselin™, Hazebrouck, France) and allowed to harden. […]
The antimicrobial activity was determined by measuring the diameter of the inhibition zones around the wells on the 24th and 48th h of incubation. […]

MTT cell viability assay = format: cell-based, human; conditions: human, ± SD, read-out: In vitro cytotoxicity (IC50)
Procedure: In order to evaluate the in vitro biocompatibility of the experimental compounds, a series of cell viability assays were performed against human malignant leukemic cell lines (LAMA-84, K-562) as well as normal murine fibroblast cells (CCL-1). All cell lines were purchased from the German Collection of Microorganisms and Cell Cultures (DSMZ GmbH, Braunschweig, Germany). Cell cultures were cultivated in a growth medium RPMI 1640 supplemented with 10% fetal bovine serum (FBS), 5% L-glutamine, and incubated under standard conditions of 37 °C and 5% humidified CO2 atmosphere.
The experimental design involved a number of cytotoxicity assays that measured cell growth inhibition by the newly synthesized compounds. Cell viability was evaluated using a standard MTT-based colorimetric assay. Exponential-phased cells were harvested and seeded (100 μL/well) in 96-well plates at the appropriate density (3 × 10^5) for the suspension cultures (LAMA-84 and K-562) and 1.5 × 10^5 for the adherent one (CCL-1). Cells were treated and incubated with various concentrations of the experimental compounds in the concentration range of 400-6.25 µM. After exposure time of 72 h, a filter-sterilized MTT substrate solution (5 mg/mL in PBS) was added to each well of the culture plate. A further 1–4 h incubation allowed for the formation of purple insoluble formazan precipitates. The latter were dissolved in isopropyl alcohol solution containing 5% formic acid prior to absorbance measurement at 550 nm using a microplate reader (Labexim LMR-1). Collected absorbance values were blanked against MTT and isopropanol solution and normalized to the mean value of the untreated control (100% cell viability). Semi-logarithmic “dose–response” curves were constructed and the half-inhibitory concentrations of the screened compounds against each tested cell line were calculated. Values of p ≤ 0.05 were considered statistically significant.

5-HT3 receptor = experiment: Immunohistochemical analysis of 5-HT3 expression in gastric SM strips; parameters: species or system Wistar rats; key to 5-HT3 expression, 5-HT / 5-HT3 expression, Response to Compound: −: absent; +: low; ++: moderate; +++: strong; conditions: for 5-HT3 expression, Response to Compound: SM preparations incubated with the compound; for 5-HT3 expression in SM preparations: immunohistochemical staining after 1 h incubation, in words
Procedure: […] Then, each SM strip was fixed in 10% neutral buffer formalin for 24–48 h and submitted for standard processing with hematoxylin and eosin staining.
The SM fragments from a rat’s gastric wall were fixed in a 10% neutral formalin solution and embedded in paraffin. Paraffin sections of 5 μm thickness were subjected to hematoxylin and eosin (H-E) staining for histochemical analysis.
Sections of the SM fragments from the wall of a rat’s stomach with a thickness of 5 µm were deparaffinized, then subjected to antigenic detection of the epitopes with citrate buffer, and an endogenous peroxidase blockade was made with hydrogen […] 3%, a kit was used to block the endogenous biotin, and a reagent was used to block non-specific binding (Superblock, Scy Tek, Santa Cruz Biotech. Inc. Heidelberg, Germany) follows incubate for 24 h (at 4 °C) with monoclonal mouse anti-5-HT3, next incubated with a secondary antibody: biotinylated anti-rabbit for 10 min at room temperature. The reaction was visualized with 3,3′-diaminobenzidine tetrachloride and counterstained with Mayer’s hematoxylin.
A quantitative and statistical analysis of immunohistochemical reaction using the Olympus DP-Soft image system (version 4.1 for Windows) was carried out on a Microphot-SA (Nikon, Japan) microscope equipped with a Camedia-5050 Z digital camera (Olympus, Japan). The analysis was performed on sections from the SM strips from the stomach of Wistar rats (n = 6 for each group). Five sections of the SM strips were measured, and the percentage of cells expressing 5-HT3 in the circular and longitudinal layer of SM cells, as well as in the myenteric plexus of the stomach, was determined. Each antibody was analyzed for five fields, in each of them the average number of cells with positive unit area response at ×200 magnification.

[2] = LAMA-84, CML in blast crisis (bcr-abl+)

SMILES	antimicrobial activity [1]	IC50 at 72 h (MTT cell viability assay; K-562 cells (blast phase chronic myeloid leukemia), K-562, Blast phase CML (bcr-abl+)) [µM]	IC50 at 72 h (MTT cell viability assay; [2]) [µM]	5-HT3 expression, Response to Compound (5-HT3 receptor)	5-HT3 expression in SM preparations (5-HT3 receptor)	IC50 at 72 h (MTT cell viability assay; K-562, Blast phase CML (bcr-abl+)) [µM]
CC(=O)NC(Cc1ccccc1)C(C)C (stereo not shown) [Compound 4a, N-(3-methyl-1-phenylbutan-2-yl)acetamide]	inhibited only the growth of Escherichia coli	276 ± 19.7	360 ± 11	−	no modulation on the 5-HT3R expression; also recorded: no 5-HT3 expression observed	
CC(C)C(N)Cc1ccccc1 (stereo not shown) [Compound 3, 3-Methyl-1-phenylbutan-2-amine]	only modest activity against Gram-negative bacteria		239 ± 18.2	+++	higher number of 5-HT3R positive cells per section; also recorded: increased intensity in 5-HT3 expression	250 ± 10.5
